According to US9375530B2 (Allergan, Inc., priority 2007, dated 2016):
Where two headings read alike, the source gives them in different places.

What was measured:
kidney water channels = conditions: as illustrated in FIG. 1
[1] = in vivo; cited from earlier work
[2] = in vivo, cited from earlier work; for % Bioavailability: human
[3] = human, in vivo; cited from earlier work

NC(=O)CC[C@@H]1NC(=O)[C@H](Cc2ccccc2)NC(=O)[C@H](Cc2ccc(O)cc2)NC(=O)CCSSC[C@@H](C(=O)N2CCC[C@H]2C(=O)N[C@H](CCCN=C(N)N)C(=O)NCC(N)=O)NC(=O)[C@H](CC(N)=O)NC1=O [desmopressin, 1-desamino-8-D-arginine vasopressin]
blood concentration sufficient to activate kidney water channels and induce an antidiuretic effect (kidney water channels): about 0.8 pg/ml
undesirable side-effects [1]: high incidences of hyponatremia
% Bioavailability ([2]; po): 0.1-0.15%
% Bioavailability ([2]; sc): Subcutaneous (±90) %
ranges for peak blood levels ([2]; po): 10-20 fold
half life [3]: 1.5 to 2.0 h
